The text below walks through data of ChEMBL document CHEMBL5584328, “Integrating computational and experimental chemical biology revealed variable anticancer activities of phosphodiesterase isoenzyme 5 inhibitors (PDE5i) in lung cancer” (RSC Med Chem, 2024).

Assay [1] concerns A549. Nature of the assay: Antiproliferative activity against human A549 cells measured after 48 hrs by MTT assay. Format: functional, cell-based. The note with it: for IC50: A549, 48 h. On the technique in general: Formazan colour is commonly taken as a measure of viable cells.
The test system of assay [2] is NCI-H1299. Nature of the assay: Antiproliferative activity against human NCI-H1299 cells measured after 48 hrs by MTT assay. The conditions noted are these: for IC50: NCI-H1299, 48 h. Type of assay: functional, cell-based.
The subject of assay [3] is NCI-H661. Nature of the assay: Antiproliferative activity against human NCI-H661 cells measured after 48 hrs by MTT assay. Type of assay: functional, cell-based. The note with it: for IC50: NCI-H661, 48 h.
Assay [4] has as its system A549. Briefly: Antiproliferative activity against human A549 cells measured after 24 hrs by MTT assay. Format: functional, cell-based.
Assay [5] concerns A549. Nature of the assay: Antiproliferative activity against human A549 cells measured after 72 hrs by MTT assay. Type of assay: functional, cell-based.
For assay [6], the system named is NCI-H1299. Briefly: Antiproliferative activity against human NCI-H1299 cells measured after 24 hrs by MTT assay. Format: functional, cell-based.
The test system of assay [7] is NCI-H1299. Briefly: Antiproliferative activity against human NCI-H1299 cells measured after 72 hrs by MTT assay. Format: functional, cell-based.
For assay [8], the system named is NCI-H661. Nature of the assay: Antiproliferative activity against human NCI-H661 cells measured after 24 hrs by MTT assay. Type of assay: functional, cell-based.
Assay [9] has as its system NCI-H661. Nature of the assay: Antiproliferative activity against human NCI-H661 cells measured after 72 hrs by MTT assay. Type of assay: functional, cell-based.
The subject of assay [10] is A549. Briefly: Antiproliferative activity against human A549 cells by MTT assay. Format: functional, cell-based. The conditions noted are these: time 24-72 hrs, TDE = time-dependent effect.
The test system of assay [11] is NCI-H1299. Briefly: Antiproliferative activity against human NCI-H1299 cells by MTT assay. Format: functional, cell-based. The conditions noted are these: time 24-72 hrs, TDE = time-dependent effect.
For assay [12], the system named is NCI-H661. Nature of the assay: Antiproliferative activity against human NCI-H661 cells by MTT assay. Format: functional, cell-based. The conditions noted are these: time 24-72 hrs, TDE = time-dependent effect.
Assay [13] deals with A549. Briefly: Potentiation of cisplatin-induced cytotoxicity against human A549 cells assessed as combination index at 1:4 ratio of cisplatin to compound measured after 48 hrs by MTT assay. Format: functional.
Assay [14] concerns NCI-H1299. Briefly: Potentiation of cisplatin-induced cytotoxicity against human NCI-H1299 cells assessed as combination index at 1:35 ratio of cisplatin to compound measured after 48 hrs by MTT assay. Format: functional.
For assay [15], the system named is NCI-H661. Briefly: Potentiation of cisplatin-induced cytotoxicity against human NCI-H661 cells assessed as combination index at 1:14 ratio of cisplatin to compound measured after 48 hrs by MTT assay. Type of assay: functional.
For assay [16], the system named is A549. Nature of the assay: Potentiation of cisplatin-induced cytotoxicity against human A549 cells assessed as fold reduction in cisplatin IC50 at 1:4 ratio of cisplatin to compound measured after 48 hrs by MTT assay relative to cisplatin alone. Type of assay: functional.
The test system of assay [17] is NCI-H1299. Nature of the assay: Potentiation of cisplatin-induced cytotoxicity against human NCI-H1299 cells assessed as fold reduction in cisplatin IC50 at 1:35 ratio of cisplatin to compound measured after 48 hrs by MTT assay relative to cisplatin alone. Format: functional.
The subject of assay [18] is NCI-H661. Briefly: Potentiation of cisplatin-induced cytotoxicity against human NCI-H661 cells assessed as fold reduction in cisplatin IC50 at 1:14 ratio of cisplatin to compound measured after 48 hrs by MTT assay relative to cisplatin alone. Format: functional.
The test system of assay [19] is A549. Nature of the assay: Potentiation of raloxifene-induced cytotoxicity against human A549 cells assessed as combination index at 1:2 ratio of raloxifene to compound measured after 48 hrs by MTT assay. Type of assay: functional.
In assay [20] the test system is NCI-H1299. Nature of the assay: Potentiation of raloxifene-induced cytotoxicity against human NCI-H1299 cells assessed as combination index at 1:20 ratio of raloxifene to compound measured after 48 hrs by MTT assay. Type of assay: functional.
Assay [21] deals with NCI-H661. Nature of the assay: Potentiation of raloxifene-induced cytotoxicity against human NCI-H661 cells assessed as combination index at 1:7 ratio of raloxifene to compound measured after 48 hrs by MTT assay. Type of assay: functional.
Assay [22] concerns A549. Briefly: Potentiation of raloxifene-induced cytotoxicity against human A549 cells assessed as fold reduction in raloxifene IC50 at 1:2 ratio of raloxifene to compound measured after 48 hrs by MTT assay relative to raloxifene alone. Type of assay: functional.
For assay [23], the system named is NCI-H1299. Briefly: Potentiation of raloxifene-induced cytotoxicity against human NCI-H1299 cells assessed as fold reduction in raloxifene IC50 at 1:20 ratio of raloxifene to compound measured after 48 hrs by MTT assay relative to raloxifene alone. Type of assay: functional.
Assay [24] deals with NCI-H661. Nature of the assay: Potentiation of raloxifene-induced cytotoxicity against human NCI-H661 cells assessed as fold reduction in raloxifene IC50 at 1:7 ratio of raloxifene to compound measured after 48 hrs by MTT assay relative to raloxifene alone. Type of assay: functional.
The test system of assay [25] is NCI-H1299. Nature of the assay: Antimigratory activity against human NCI-H1299 cells assessed as reduction in wound closure measured after 24 hrs by wound healing assay. Format: functional, cell-based.
For assay [26], the system named is A549. Briefly: Inhibition of colony formation in human A549 cells assessed as reduction in number of colonies at 52.5 to 105 uM measured after 48 hrs by colony formation assay. Type of assay: functional, cell-based. The conditions noted are these: dose 52.5-105 µM.
Assay [27] relates to A549. Briefly: Inhibition of colony formation in human A549 cells assessed as reduction in size of colonies at 52.5 to 105 uM measured after 48 hrs by colony formation assay. The note with it: dose 52.5-105 µM. Format: functional, cell-based.
The subject of assay [28] is A549. Briefly: Induction of apoptosis in human A549 cells assessed as increase in apoptotic cells at 210 uM measured after 48 hrs by Annexin V-FITC/PI staining based flow cytometry relative to control. Format: functional. In general terms: A flow cytometer gives signals particle by particle.
In assay [29] the test system is A549. Briefly: Cell cycle arrest in human A549 cells assessed as increase in cell population at G2 phase at 52.5 uM measured after 48 hrs by propidium iodide staining based flow cytometry. Format: functional.
The subject of assay [30] is A549. Briefly: Reduction in PDE5 gene expression in human A549 cells at 0.1 IC50 measured after 48 hrs by qRT-PCR analysis. Type of assay: functional, cell-based. For orientation: Real-time PCR tracks product formation cycle by cycle.
Assay [31] deals with A549. Nature of the assay: Reduction in Bcl-2 gene expression in human A549 cells at 0.1 IC50 measured after 48 hrs by qRT-PCR analysis. Type of assay: functional, cell-based.
Assay [32] relates to A549. Nature of the assay: Reduction in PDE5 protein expression in human A549 cells at 0.25 to 0.5 IC50 measured after 48 hrs by Western blot analysis. Format: functional, cell-based.

Active and inactive are the calls of the source. No cut-off for these calls is given here.

In general, IC50 refers to the concentration that inhibits the measured activity by half. Read a low IC50 as greater potency in that assay. Consider `CCCc1nn(C)c2c(=O)[nH]c(-c3cc(S(=O)(=O)N4CCN(C)CC4)ccc3OCC)nc12` [SILDENAFIL], for which the IC50 in the assay on A549 [1], in the assay with NCI-H1299 [2] and in the assay with NCI-H661 [3] was greater than 500 µM throughout.

For `CN1CC(=O)N2[C@H](c3ccc4c(c3)OCO4)c3[nH]c4ccccc4c3C[C@@H]2C1=O` [TADALAFIL], the Activity entry in the assay on A549 [4], in the assay on A549 [1], in the assay with A549 [5], in the assay with NCI-H1299 [6], with NCI-H1299 [2] and with NCI-H1299 [7] was “Dose-Dependent Effect” in each case. The Activity result in the assay with NCI-H661 [8] was “Dose-Dependent Effect”; with NCI-H661 [3] it was “Dose-Dependent Effect”; with NCI-H661 [9], “Dose-Dependent Effect”; in the assay on A549 [10] it was “Tde”; in the assay with NCI-H1299 [11] it was “Tde”; in the assay with NCI-H661 [12], “Tde”. Moreover, the Activity result was “Dose-Dependent Effect” in the assay with NCI-H1299 [25], 22.2% in the assay on A549 [28] and “Dose-Dependent Effect” in the assay with A549 [32]. Further, the IC50 came out at 354 µM with A549 [4] (A549, 24 h); 106 µM in the assay on A549 [1]; 73.9 µM in the assay with A549 [5] (A549, 72 h); 359 µM in the assay on NCI-H1299 [6] (NCI-H1299, 24 h); 274 µM with NCI-H1299 [2]; 127 µM in the assay on NCI-H1299 [7] (NCI-H1299, 72 h). In addition, the concentration for half-maximal inhibition (IC50) in the assay with NCI-H661 [8] (NCI-H661, 24 h) was determined as 876 µM; with NCI-H661 [3], 281 µM; in the assay on NCI-H661 [9] (NCI-H661, 72 h) it was 243 µM. Further, the CI in the assay with A549 [13] was determined as 0.92; with NCI-H1299 [14], 0.78; with NCI-H661 [15] it was 0.89; in the assay on A549 [19], 0.98; in the assay with NCI-H1299 [20], 0.44; with NCI-H661 [21] it was 0.89. The “fold change (FC)” value with A549 [16] is 2.1; in the assay on NCI-H1299 [17], 2.6; in the assay with NCI-H661 [18], 2; with A549 [22], 1.9; in the assay on NCI-H1299 [23], 5.2; in the assay with NCI-H661 [24] it was 2.1. The inhibition result in the assay with A549 [26] and in the assay on A549 [27] was “Active” throughout. The outcome in the assay on A549 [29], in the assay with A549 [30] and in the assay on A549 [31] was Active.
